Data: patent US20250179061A1 (SIRONAX LTD., priority 2022, published 2025)
Structures can show the parent of a compound that is named as a salt.

Each compound was assayed on HT-29 cells (assay: HT-29 necroptosis cell viability assay (TNF-α/SMAC mimetic/zVAD-FMK, CellTiter-Glo)). Conditions: HT-29 cells stimulated with TNF-α (10 ng/ml), SMAC mimetic (6 μM) and zVAD-FMK (10 μM); 20 hours; CellTiter-Glo ATP luminescence; geometric mean IC50 from 10 points; read-out: Activity.
Type: cell-based
Outline: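 Necroptosis was triggered by TNF-α (10 ng/ml), SMAC mimetic (6 μM) and zVAD-FMK (10 μM) in serum-free medium during 20 h compound exposure (10 concentrations, threefold steps) of HT-29 cells. IC50 from duplicate dose-responses uses CellTiter-Glo ATP luminescence as viability read-out.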
In the case of `Cc1nc(C(N)=O)sc1Oc1ccc(-n2nc3n(c2=O)C(c2ccccc2)CC3F)cc1F` (centres unmarked) [Example 80, 5-(2-fluoro-4-(7-fluoro-3-oxo-5-phenyl-3,5,6,7-tetrahydro-2H-pyrrolo[2,1-c][1,2,4]triazol-2-yl)phenoxy)-4-methylthiazole-2-carboxamide], the IC50 is reported as under 100 nM. `Cc1nc(N2C[C@@H](N)[C@@H]2C)sc1Oc1ccc(-n2ncn(Cc3c(F)cccc3F)c2=O)cc1` [Example 72, 2-(4-((2-((2S,3R)-3-amino-2-methylazetidin-1-yl)-4-methylthiazol-5-yl)oxy)phenyl)-4-(2,6-difluorobenzyl)-2,4-dihydro-3H-1,2,4-triazol-3-one] showed an IC50 of under 100 nM.

Same assay, conditions: Homo sapiens, HT-29, HT-29 cells, necroptosis induced by TNF-α/SMAC mimetic/zVAD-FMK, CellTiter-Glo; read-out: Activity (IC50 class)
In the case of `Cc1nc(C(N)C(F)(F)F)sc1Oc1ccc(-n2ncn(Cc3c(F)cccc3F)c2=O)cc1F` (centres unmarked) [Example 651, 2-(4-((2-(1-amino-2,2,2-trifluoroethyl)-4-methylthiazol-5-yl)oxy)-3-fluorophenyl)-4-(2,6-difluorobenzyl)-2,4-dihydro-3H-1,2,4-triazol-3-one], the IC50 is reported as 100 to 1000 nM.

Same assay, conditions: Homo sapiens, HT-29, HT-29 necroptosis cell viability assay; class symbols for IC50; read-out: Activity
In the case of `CC(=O)Nc1cc(Oc2ccc(-n3ncn(Cc4c(F)cccc4F)c3=O)cc2)ccn1` [Example 521, N-[4-[4-[4-[(2,6-difluorophenyl)methyl]-5-oxo-1,2,4-triazol-1-yl]phenoxy]-2-pyridyl]acetamide], the IC50 is reported as 100 to 1000 nM. Compound `Cc1nn(-c2ccc(S(=O)(=O)N3CCN(CC4CCOCC4)CC3)cc2)c(=O)n1Cc1ccccc1` [Example 622, 4-benzyl-5-methyl-2-(4-((4-((tetrahydro-2H-pyran-4-yl)methyl)piperazin-1-yl)sulfonyl)phenyl)-2,4-dihydro-3H-1,2,4-triazol-3-one] has an IC50 of 100 to 1000 nM. `Cc1cnc(N2CC(C)(C(N)=O)C2)cc1Oc1ccc(-n2ncn(Cc3c(F)cccc3F)c2=O)cc1Cl` [Example 568, 1-(4-(2-chloro-4-(4-(2,6-difluorobenzyl)-5-oxo-4,5-dihydro-1H-1,2,4-triazol-1-yl)phenoxy)-5-methylpyridin-2-yl)-3-methylazetidine-3-carboxamide] gave an IC50 of under 100 nM. Work on `Cc1ncsc1OC1CCC(n2ncn(Cc3c(F)cccc3F)c2=O)CC1` (centres unmarked) [Example 162, 4-(2,6-difluorobenzyl)-2-(4-((4-methylthiazol-5-yl)oxy)cyclohexyl)-2,4-dihydro-3H-1,2,4-triazol-3-one] yielded an IC50 of 100 to 1000 nM. With `Cc1nc(CC(C)(C)O)sc1Oc1ccc(-n2ncn(Cc3c(F)cccc3F)c2=O)cc1F` [Example 154, 4-(2,6-difluorobenzyl)-2-(3-fluoro-4-((2-(2-hydroxy-2-methylpropyl)-4-methylthiazol-5-yl)oxy)phenyl)-2,4-dihydro-3H-1,2,4-triazol-3-one] the IC50 was under 100 nM. In the case of `O=c1n(Cc2c(F)cccc2F)cnn1-c1ccc(Oc2ccnc(N3C[C@H]4COC[C@H]4C3)c2)cc1` [Example 481, 4-(2,6-difluorobenzyl)-2-(4-((2-((3aR,6aS)-tetrahydro-1H-furo[3,4-c]pyrrol-5(3H)-yl)pyridin-4-yl)oxy)phenyl)-2,4-dihydro-3H-1,2,4-triazol-3-one], the IC50 is reported as 100 to 1000 nM. `Cc1ncn(Cc2ccc(-n3ncn(Cc4c(F)cccc4F)c3=O)cc2)c1I` [Example 540, 4-(2,6-difluorobenzyl)-2-(4-((5-iodo-4-methyl-1H-imidazol-1-yl)methyl)phenyl)-2,4-dihydro-3H-1,2,4-triazol-3-one] was tested, and the IC50 was under 100 nM. `CCOC1CN(c2nc(C)c(Oc3ccc(-n4ncn(Cc5c(F)cccc5F)c4=O)cc3)n2C)C1` [Example 183, 4-(2,6-difluorobenzyl)-2-(4-((2-(3-ethoxyazetidin-1-yl)-1,4-dimethyl-1H-imidazol-5-yl)oxy)phenyl)-2,4-dihydro-3H-1,2,4-triazol-3-one] showed an IC50 of under 100 nM. `Cc1nc(C)n(Cc2ccc(-n3ncn(Cc4c(F)cccc4F)c3=O)cc2F)c1C(N)=O` [Example 218, 1-(4-(4-(2,6-difluorobenzyl)-5-oxo-4,5-dihydro-1H-1,2,4-triazol-1-yl)-2-fluorobenzyl)-2,4-dimethyl-1H-imidazole-5-carboxamide] was tested, and the IC50 was 100 to 1000 nM. `Cc1cc(CO)n(Cc2ccc(-n3nc4n(c3=O)C(c3ccccc3)CC4)cc2F)n1` (centres unmarked) [Example 221, 2-(3-fluoro-4-((5-(hydroxymethyl)-3-methyl-1H-pyrazol-1-yl)methyl)phenyl)-5-phenyl-2,5,6,7-tetrahydro-3H-pyrrolo[2,1-c][1,2,4]triazol-3-one] showed an IC50 of 1000 to 10000 nM. `Cc1nc(C(=O)NC2CCOCC2)sc1Oc1ccc(-n2nc3n(c2=O)[C@H](c2ccccc2)CC3)cc1F` (single isomer, unassigned) [Example 602] gave an IC50 of under 100 nM. `COC1(C)CN(c2cc(Oc3ccc(-n4ncn(Cc5c(F)cccc5F)c4=O)cc3)ccn2)C1` [Example 500, 4-(2,6-difluorobenzyl)-2-(4-((2-(3-methoxy-3-methylazetidin-1-yl)pyridin-4-yl)oxy)phenyl)-2,4-dihydro-3H-1,2,4-triazol-3-one] gave an IC50 of under 100 nM.

Same assay, conditions: Homo sapiens, HT-29, HT-29 necroptosis cell viability, IC50 class symbols; read-out: Activity
For `COC1(C#N)CN(c2cc(Oc3ccc(-n4ncn(Cc5c(F)cccc5F)c4=O)cc3)c(C)cn2)C1` [Example 320, 1-(4-(4-(4-(2,6-difluorobenzyl)-5-oxo-4,5-dihydro-1H-1,2,4-triazol-1-yl)phenoxy)-5-methylpyridin-2-yl)-3-methoxyazetidine-3-carbonitrile], the IC50 was under 100 nM. In the case of `Cc1nc(C(N)=O)sc1Oc1ccc(-n2nc3n(c2=O)[C@H](c2ccccc2)CO3)cc1F` [Example 445, (R)-5-(2-fluoro-4-(3-oxo-5-phenyl-5,6-dihydrooxazolo[2,3-c][1,2,4]triazol-2(3H)-yl)phenoxy)-4-methylthiazole-2-carboxamide], the IC50 is reported as under 100 nM. In the case of `N#Cc1cccc(Oc2ccc(-n3ncn(Cc4c(F)cccc4F)c3=O)cc2)c1` [Example 437, 3-(4-(4-(2,6-difluorobenzyl)-5-oxo-4,5-dihydro-1H-1,2,4-triazol-1-yl)phenoxy)benzonitrile], the IC50 is reported as under 100 nM. In the case of `CC(C)OC1CN(c2cccc(Oc3ccc(-n4ncn(Cc5c(F)cccc5F)c4=O)cc3)n2)C1` [Example 253, 4-(2,6-difluorobenzyl)-2-(4-((6-(3-isopropoxyazetidin-1-yl)pyridin-2-yl)oxy)phenyl)-2,4-dihydro-3H-1,2,4-triazol-3-one], the IC50 is reported as under 100 nM. `CC1(C#N)CCN(c2cc(Oc3ccc(-n4ncn(Cc5c(F)cccc5F)c4=O)cc3F)c(Cl)cn2)C1` (centres unmarked) [Example 393, 1-(5-chloro-4-(4-(4-(2,6-difluorobenzyl)-5-oxo-4,5-dihydro-1H-1,2,4-triazol-1-yl)-2-fluorophenoxy)pyridin-2-yl)-3-methylpyrrolidine-3-carbonitrile] showed an IC50 of under 100 nM. For `N#CC12CC(Nc3nccc(Oc4ccc(-n5ncn(Cc6c(F)cccc6F)c5=O)cc4Cl)c3Cl)(C1)C2` [Example 313, 3-((3-chloro-4-(2-chloro-4-(4-(2,6-difluorobenzyl)-5-oxo-4,5-dihydro-1H-1,2,4-triazol-1-yl)phenoxy)pyridin-2-yl)amino)bicyclo[1.1.1]pentane-1-carbonitrile], the IC50 was 100 to 1000 nM. For `Cc1nc(C(C)(C)O)sc1Oc1ccc(-n2ncn(Cc3c(F)cccc3F)c2=O)cc1` [Example 473, 4-(2,6-difluorobenzyl)-2-(4-((2-(2-hydroxypropan-2-yl)-4-methylthiazol-5-yl)oxy)phenyl)-2,4-dihydro-3H-1,2,4-triazol-3-one], the IC50 was under 100 nM. With `O=c1n(Cc2c(F)cccc2F)cnn1-c1ccc(Oc2ccnc(N3CC(OC(F)F)C3)c2)cc1` [Example 287, 4-(2,6-difluorobenzyl)-2-(4-((2-(3-(difluoromethoxy)azetidin-1-yl)pyridin-4-yl)oxy)phenyl)-2,4-dihydro-3H-1,2,4-triazol-3-one] the IC50 was under 100 nM. For `CC1(N)CN(c2cc(Oc3ccc(-n4ncn(Cc5c(F)cccc5F)c4=O)cc3F)c(C#N)cn2)C1` [Example 396, 6-(3-amino-3-methylazetidin-1-yl)-4-(4-(4-(2,6-difluorobenzyl)-5-oxo-4,5-dihydro-1H-1,2,4-triazol-1-yl)-2-fluorophenoxy)nicotinonitrile], the IC50 was 100 to 1000 nM.

Same assay, conditions: Homo sapiens; HT-29 cells stimulated with TNF-α (10 ng/ml), SMAC mimetic (6 μM) and zVAD-FMK (10 μM); 20 hours; CellTiter-Glo ATP luminescence; geometric mean IC50 from 10 points; read-out: Activity
`Cc1c(C(N)=O)nn(C)c1Oc1ccc(-n2nc3n(c2=O)C(c2ccccc2)CC3)cc1F` (centres unmarked) [Example 23, 5-(2-fluoro-4-(3-oxo-5-phenyl-6,7-dihydro-3H-pyrrolo[2,1-c][1,2,4]triazol-2(5H)-yl)phenoxy)-1,4-dimethyl-1H-pyrazole-3-carboxamide] was tested, and the IC50 was under 100 nM. Work on `CCOC1CN(c2nc(C)c(Oc3ccc(-n4ncn(Cc5c(F)cccc5F)c4=O)cc3)s2)C1` [Example 74, 4-(2,6-difluorobenzyl)-2-(4-((2-(3-ethoxyazetidin-1-yl)-4-methylthiazol-5-yl)oxy)phenyl)-2,4-dihydro-3H-1,2,4-triazol-3-one] yielded an IC50 of under 100 nM. For `COC(=O)c1nc(Oc2ccc(-n3ncn(Cc4c(F)cccc4F)c3=O)cc2)sc1C` [Example 92, methyl 2-(4-(4-(2,6-difluorobenzyl)-5-oxo-4,5-dihydro-1H-1,2,4-triazol-1-yl)phenoxy)-5-methylthiazole-4-carboxylate], the IC50 was 100 to 1000 nM. `Cc1nc(N2CC(N)(CF)C2)sc1Cc1ccc(-n2ncn(Cc3c(F)cccc3F)c2=O)cc1F` [Example 62, 2-(4-((2-(3-amino-3-(fluoromethyl)azetidin-1-yl)-4-methylthiazol-5-yl)methyl)-3-fluorophenyl)-4-(2,6-difluorobenzyl)-2,4-dihydro-3H-1,2,4-triazol-3-one trifluoroacetate] gave an IC50 of under 100 nM. Compound `Cc1nc(NC23CC(C#N)(C2)C3)sc1Oc1ccc(-n2ncn(Cc3c(F)cccc3F)c2=O)cc1` [Example 45, 3-((5-(4-(4-(2,6-difluorobenzyl)-5-oxo-4,5-dihydro-1H-1,2,4-triazol-1-yl)phenoxy)-4-methylthiazol-2-yl)amino)bicyclo[1.1.1]pentane-1-carbonitrile] has an IC50 of under 100 nM.
